Tests used:
Test in all cases: biochemical
KIT(V559D,T670I) = KIT(V559D,T670I) (Homo sapiens, UniProt P10721, T670I/V559D); conditions: read-out: CPT-1-70-1 (1uM) % control
PKNB(M.tuberculosis) = PKNB(M.tuberculosis) (Mycobacterium tuberculosis, UniProt P9WI81); conditions: read-out: CPT-1-70-1 (1μM) % control
FLT3-autoinhibited = FLT3-autoinhibited (Homo sapiens, UniProt P36888); conditions: read-out: CPT-1-70-1 (1uM) % control
EPHB1 = EPHB1 (Homo sapiens, UniProt P54762); conditions: read-out: CPT-1-70-1 (1uM) % control
EPHB1, sequence (P54762 whole entry): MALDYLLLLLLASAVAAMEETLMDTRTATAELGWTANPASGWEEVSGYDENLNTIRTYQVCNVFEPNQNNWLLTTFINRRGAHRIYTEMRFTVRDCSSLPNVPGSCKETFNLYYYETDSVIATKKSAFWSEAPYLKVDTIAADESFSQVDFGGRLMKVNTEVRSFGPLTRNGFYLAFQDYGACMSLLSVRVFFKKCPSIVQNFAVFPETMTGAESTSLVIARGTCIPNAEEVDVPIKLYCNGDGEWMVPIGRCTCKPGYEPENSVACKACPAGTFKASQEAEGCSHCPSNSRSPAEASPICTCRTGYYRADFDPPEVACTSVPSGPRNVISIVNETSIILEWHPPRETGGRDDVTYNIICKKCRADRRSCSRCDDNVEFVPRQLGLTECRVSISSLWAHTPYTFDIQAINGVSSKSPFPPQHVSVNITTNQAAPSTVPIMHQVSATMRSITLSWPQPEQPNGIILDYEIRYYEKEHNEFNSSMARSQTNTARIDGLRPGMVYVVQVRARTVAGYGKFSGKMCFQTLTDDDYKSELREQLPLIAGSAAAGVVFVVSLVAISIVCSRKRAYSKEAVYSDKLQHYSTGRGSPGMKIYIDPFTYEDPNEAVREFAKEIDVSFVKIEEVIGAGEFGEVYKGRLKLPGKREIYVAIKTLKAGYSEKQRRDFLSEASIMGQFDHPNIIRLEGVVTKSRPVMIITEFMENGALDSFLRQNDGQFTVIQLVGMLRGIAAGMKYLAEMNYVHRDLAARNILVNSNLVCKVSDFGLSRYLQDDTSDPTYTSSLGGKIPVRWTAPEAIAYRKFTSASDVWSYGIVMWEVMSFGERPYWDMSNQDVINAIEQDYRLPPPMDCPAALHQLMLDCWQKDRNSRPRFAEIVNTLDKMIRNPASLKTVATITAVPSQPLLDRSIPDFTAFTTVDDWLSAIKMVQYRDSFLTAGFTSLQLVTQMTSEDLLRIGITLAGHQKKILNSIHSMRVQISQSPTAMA

ALK(L1196M) = ALK(L1196M) (Homo sapiens, UniProt Q9UM73, L1196M); conditions: read-out: CPT-1-70-1 (1uM) % control
EGFR(L858R,T790M) = EGFR(L858R,T790M) (Homo sapiens, UniProt P00533, L858R/T790M); conditions: read-out: CPT-1-70-1 (1uM) % control
EGFR(L858R,T790M), sequence (P00533 whole entry T790M/L858R): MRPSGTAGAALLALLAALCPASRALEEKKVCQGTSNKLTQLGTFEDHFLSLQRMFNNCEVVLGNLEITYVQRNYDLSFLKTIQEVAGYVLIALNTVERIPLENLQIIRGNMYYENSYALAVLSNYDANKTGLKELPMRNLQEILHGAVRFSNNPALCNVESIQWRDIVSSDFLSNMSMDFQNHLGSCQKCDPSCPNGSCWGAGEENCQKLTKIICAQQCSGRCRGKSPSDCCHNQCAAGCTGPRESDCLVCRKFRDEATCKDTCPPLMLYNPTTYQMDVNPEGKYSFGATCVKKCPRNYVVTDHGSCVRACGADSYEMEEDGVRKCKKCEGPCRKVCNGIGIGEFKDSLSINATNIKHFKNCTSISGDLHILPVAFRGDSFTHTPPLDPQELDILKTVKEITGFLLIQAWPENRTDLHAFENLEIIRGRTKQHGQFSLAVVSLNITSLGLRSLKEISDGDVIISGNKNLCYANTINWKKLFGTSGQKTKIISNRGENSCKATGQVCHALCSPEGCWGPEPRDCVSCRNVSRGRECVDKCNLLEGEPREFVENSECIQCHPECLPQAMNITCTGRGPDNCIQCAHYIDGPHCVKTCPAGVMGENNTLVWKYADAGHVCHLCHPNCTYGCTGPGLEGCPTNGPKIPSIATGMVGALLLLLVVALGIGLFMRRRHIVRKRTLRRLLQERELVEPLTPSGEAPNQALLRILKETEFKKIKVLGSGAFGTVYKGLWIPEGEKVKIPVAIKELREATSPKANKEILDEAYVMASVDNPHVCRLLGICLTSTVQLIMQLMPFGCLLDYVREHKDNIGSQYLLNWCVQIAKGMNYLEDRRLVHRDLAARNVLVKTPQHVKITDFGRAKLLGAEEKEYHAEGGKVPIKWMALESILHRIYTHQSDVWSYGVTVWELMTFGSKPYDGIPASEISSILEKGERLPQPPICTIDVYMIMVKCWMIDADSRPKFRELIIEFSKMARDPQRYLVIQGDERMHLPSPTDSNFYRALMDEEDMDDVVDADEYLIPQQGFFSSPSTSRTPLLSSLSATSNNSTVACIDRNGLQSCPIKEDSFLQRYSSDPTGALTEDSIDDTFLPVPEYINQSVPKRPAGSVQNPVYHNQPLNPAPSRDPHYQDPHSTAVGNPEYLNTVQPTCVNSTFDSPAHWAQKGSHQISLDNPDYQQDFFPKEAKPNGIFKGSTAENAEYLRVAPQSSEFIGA

PKAC-beta = PKAC-beta (Homo sapiens, UniProt P22694); conditions: read-out: CPT-1-70-1 (1μM) % control
PKN2 = PKN2 (Homo sapiens, UniProt Q16513); conditions: read-out: CPT-1-70-1 (1μM) % control
PKN2, sequence (Q16513 whole entry): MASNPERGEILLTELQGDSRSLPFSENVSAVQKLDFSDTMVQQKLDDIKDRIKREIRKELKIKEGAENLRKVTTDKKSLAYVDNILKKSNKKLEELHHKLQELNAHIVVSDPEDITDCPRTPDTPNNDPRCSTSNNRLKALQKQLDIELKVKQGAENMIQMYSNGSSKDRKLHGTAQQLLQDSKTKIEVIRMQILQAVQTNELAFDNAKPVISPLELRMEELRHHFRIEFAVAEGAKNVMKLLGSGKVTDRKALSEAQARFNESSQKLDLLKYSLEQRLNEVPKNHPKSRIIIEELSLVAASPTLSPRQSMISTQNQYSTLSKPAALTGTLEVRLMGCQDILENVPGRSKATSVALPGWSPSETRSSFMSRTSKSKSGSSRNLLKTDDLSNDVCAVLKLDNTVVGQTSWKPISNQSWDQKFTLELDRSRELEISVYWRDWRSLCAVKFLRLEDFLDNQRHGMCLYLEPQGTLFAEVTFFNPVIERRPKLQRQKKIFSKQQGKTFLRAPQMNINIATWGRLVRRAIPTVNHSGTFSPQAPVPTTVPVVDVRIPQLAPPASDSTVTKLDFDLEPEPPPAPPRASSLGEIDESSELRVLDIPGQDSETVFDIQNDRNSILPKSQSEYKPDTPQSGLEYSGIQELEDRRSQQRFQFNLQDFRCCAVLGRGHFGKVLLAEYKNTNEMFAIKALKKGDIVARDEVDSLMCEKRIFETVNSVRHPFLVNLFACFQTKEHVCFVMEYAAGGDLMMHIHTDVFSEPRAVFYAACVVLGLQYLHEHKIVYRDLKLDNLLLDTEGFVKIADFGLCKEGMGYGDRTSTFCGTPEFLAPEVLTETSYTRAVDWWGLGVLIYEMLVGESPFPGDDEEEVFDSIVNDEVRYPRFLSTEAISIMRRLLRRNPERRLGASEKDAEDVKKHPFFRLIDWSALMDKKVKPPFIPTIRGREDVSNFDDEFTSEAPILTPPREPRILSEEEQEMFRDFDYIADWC

PIM2 = PIM2 (Homo sapiens, UniProt Q9P1W9); conditions: read-out: CPT-1-70-1 (1μM) % control
WNK3 = WNK3 (Homo sapiens, UniProt Q9BYP7); conditions: read-out: CPT-1-70-1 (1μM) % control
PIP5K2C = PIP5K2C (Homo sapiens, UniProt Q8TBX8); conditions: read-out: CPT-1-70-1 (1μM) % control
NEK10 = NEK10 (Homo sapiens, UniProt Q6ZWH5); conditions: read-out: CPT-1-70-1 (1μM) % control
PIP5K1C = PIP5K1C (Homo sapiens, UniProt O60331); conditions: read-out: CPT-1-70-1 (1μM) % control
PIM3 = PIM3 (Homo sapiens, UniProt Q86V86); conditions: read-out: CPT-1-70-1 (1μM) % control
SGK = SGK (Homo sapiens, UniProt O00141); conditions: read-out: CPT-1-70-1 (1μM) % control
SGK, sequence (O00141 whole entry): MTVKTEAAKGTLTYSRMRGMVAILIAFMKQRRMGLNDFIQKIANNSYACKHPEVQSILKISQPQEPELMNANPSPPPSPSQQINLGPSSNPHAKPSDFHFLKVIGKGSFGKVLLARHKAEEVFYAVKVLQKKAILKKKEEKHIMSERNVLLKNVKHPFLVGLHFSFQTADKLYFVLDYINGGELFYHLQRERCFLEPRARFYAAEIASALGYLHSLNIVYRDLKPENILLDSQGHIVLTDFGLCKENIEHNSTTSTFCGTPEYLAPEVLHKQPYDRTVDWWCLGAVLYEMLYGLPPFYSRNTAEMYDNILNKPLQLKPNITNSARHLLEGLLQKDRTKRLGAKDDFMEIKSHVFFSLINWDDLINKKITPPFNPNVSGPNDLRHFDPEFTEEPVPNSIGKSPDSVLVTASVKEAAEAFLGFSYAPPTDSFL

PIK4CB = PIK4CB (Homo sapiens, UniProt Q9UBF8); conditions: read-out: CPT-1-70-1 (1μM) % control
WNK1 = WNK1 (Homo sapiens, UniProt Q9H4A3); conditions: read-out: CPT-1-70-1 (1μM) % control
PIK3CA(Q546K) = PIK3CA(Q546K) (Homo sapiens, UniProt P42336, Q546K); conditions: read-out: CPT-1-70-1 (1μM) % control
PIP5K1A = PIP5K1A (Homo sapiens, UniProt Q99755); conditions: read-out: CPT-1-70-1 (1μM) % control
PIK3CG = PIK3CG (Homo sapiens, UniProt P48736); conditions: read-out: CPT-1-70-1 (1μM) % control
PIP5K2B = PIP5K2B (Homo sapiens, UniProt P78356); conditions: read-out: CPT-1-70-1 (1μM) % control
PKN1 = PKN1 (Homo sapiens, UniProt Q16512); conditions: read-out: CPT-1-70-1 (1μM) % control
SGK2 = SGK2 (Homo sapiens, UniProt Q9HBY8); conditions: read-out: CPT-1-70-1 (1μM) % control
SGK2, sequence (Q9HBY8 whole entry): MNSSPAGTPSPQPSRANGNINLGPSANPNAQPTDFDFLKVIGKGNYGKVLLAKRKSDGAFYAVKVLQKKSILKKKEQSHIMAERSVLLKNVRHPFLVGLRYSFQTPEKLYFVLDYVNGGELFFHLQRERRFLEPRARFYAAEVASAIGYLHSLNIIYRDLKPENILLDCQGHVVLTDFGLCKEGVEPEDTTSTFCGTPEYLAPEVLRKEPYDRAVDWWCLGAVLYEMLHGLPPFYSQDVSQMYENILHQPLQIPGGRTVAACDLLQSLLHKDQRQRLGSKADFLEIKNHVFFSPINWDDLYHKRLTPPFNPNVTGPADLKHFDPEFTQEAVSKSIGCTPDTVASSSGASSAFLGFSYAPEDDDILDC

PIM1 = PIM1 (Homo sapiens, UniProt P11309); conditions: read-out: CPT-1-70-1 (1μM) % control
NIK = NIK (Homo sapiens, UniProt Q99558); conditions: read-out: CPT-1-70-1 (1μM) % control
PKAC-alpha = PKAC-alpha (Homo sapiens, UniProt P17612); conditions: read-out: CPT-1-70-1 (1μM) % control
PIK3CD = PIK3CD (Homo sapiens, UniProt O00329); conditions: read-out: CPT-1-70-1 (1μM) % control
PIK3CB = PIK3CB (Homo sapiens, UniProt P42338); conditions: read-out: CPT-1-70-1 (1μM) % control
PKMYT1 = PKMYT1 (Homo sapiens, UniProt Q99640); conditions: read-out: CPT-1-70-1 (1μM) % control

FLT3-autoinhibited, sequence (P36888 whole entry): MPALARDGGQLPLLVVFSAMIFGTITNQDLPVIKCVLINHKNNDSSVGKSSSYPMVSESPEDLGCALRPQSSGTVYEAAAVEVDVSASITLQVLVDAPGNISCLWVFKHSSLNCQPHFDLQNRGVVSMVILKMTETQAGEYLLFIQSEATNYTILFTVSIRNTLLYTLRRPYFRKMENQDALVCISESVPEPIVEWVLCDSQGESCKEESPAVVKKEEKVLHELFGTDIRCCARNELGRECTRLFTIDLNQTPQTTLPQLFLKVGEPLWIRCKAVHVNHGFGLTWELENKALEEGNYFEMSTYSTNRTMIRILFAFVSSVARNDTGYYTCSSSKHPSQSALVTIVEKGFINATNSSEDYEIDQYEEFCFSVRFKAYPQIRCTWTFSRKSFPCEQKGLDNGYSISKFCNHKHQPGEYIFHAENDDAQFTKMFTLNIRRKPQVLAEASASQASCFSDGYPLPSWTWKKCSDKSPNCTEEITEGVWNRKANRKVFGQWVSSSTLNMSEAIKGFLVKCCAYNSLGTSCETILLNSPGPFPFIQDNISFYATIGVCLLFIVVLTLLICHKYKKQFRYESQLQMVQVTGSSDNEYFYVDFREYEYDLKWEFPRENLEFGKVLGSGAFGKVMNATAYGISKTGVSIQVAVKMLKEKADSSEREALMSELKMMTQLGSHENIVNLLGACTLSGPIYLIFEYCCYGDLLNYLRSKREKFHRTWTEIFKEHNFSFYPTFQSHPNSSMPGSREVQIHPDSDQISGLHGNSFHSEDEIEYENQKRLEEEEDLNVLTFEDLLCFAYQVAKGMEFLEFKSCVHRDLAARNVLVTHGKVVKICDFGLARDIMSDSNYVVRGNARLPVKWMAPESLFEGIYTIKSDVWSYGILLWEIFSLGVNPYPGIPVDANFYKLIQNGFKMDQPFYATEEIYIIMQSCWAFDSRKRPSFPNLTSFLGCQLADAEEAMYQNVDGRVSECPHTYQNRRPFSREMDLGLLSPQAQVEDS

With CN1CCN(c2ccc(Nc3nc(Oc4ccc(NC(=O)CCl)cc4)c4cc[nH]c4n3)cc2)CC1 [CPT1-70-1] the remaining activity at 1 µM (KIT(V559D,T670I)) was 28%, the remaining activity at 1 µM (PKNB(M.tuberculosis)) was 58% and the remaining activity at 1 µM (FLT3-autoinhibited) was 38%. It also gave a remaining activity at 1 µM (EPHB1) of 84%, a remaining activity at 1 µM (ALK(L1196M)) of 100% and a remaining activity at 1 µM (EGFR(L858R,T790M)) of 0.35%. The remaining activity at 1 µM (PKAC-beta) was 100%, the remaining activity at 1 µM (PKN2) was 100% and the remaining activity at 1 µM (PIM2) was 100%. The remaining activity at 1 µM (WNK3) was 100%, the remaining activity at 1 µM (PIP5K2C) was 63% and the remaining activity at 1 µM (NEK10) was 14%. The remaining activity at 1 µM (PIP5K1C) was 57%, the remaining activity at 1 µM (PIM3) was 81% and the remaining activity at 1 µM (SGK) was 26%. The remaining activity at 1 µM (PIK4CB) was 100%, the remaining activity at 1 µM (WNK1) was 100% and the remaining activity at 1 µM (PIK3CA(Q546K)) was 100%. The remaining activity at 1 µM (PIP5K1A) was 13%, the remaining activity at 1 µM (PIK3CG) was 100% and the remaining activity at 1 µM (PIP5K2B) was 100%. The remaining activity at 1 µM (PKN1) was 79%, the remaining activity at 1 µM (SGK2) was 100% and the remaining activity at 1 µM (PIM1) was 100%. It also gave a remaining activity at 1 µM (NIK) of 100%, a remaining activity at 1 µM (PKAC-alpha) of 69% and a remaining activity at 1 µM (PIK3CD) of 100%. The remaining activity at 1 µM (PIK3CB) was 100% and the remaining activity at 1 µM (PKMYT1) was 94%.
